# From patent publication US7994318B2, “Coumarin derivatives useful as TNFα inhibitors” (Chugai Seiyaku Kabushiki Kaisha, priority 2000, dated 2011)
# Tested on: TNFα
# Assay: In vitro assay: TNFα ELISA of supernatants of LPS-stimulated human PBMC
# Type: cell-based
# Conditions: Homo sapiens, PBMC, human PBMC pretreated with drug 60 min, stimulated with LPS (E. coli O55:B5) 100 ng/mL, overnight culture, TNFα in supernatant by ELISA; read-out: 50% Inhibition of TNFα level (IC50)
# Method: Enzyme-linked immunosorbent assays (ELISA) for TNFα can be performed in a conventional manner (Blood, 75, 40-47 (1990)). Human PBMC are isolated from heparinized venous blood obtained from healthy volunteers by Ficoll-Hypaque density centrifugation. The cells are cultured in RPMI1640 medium supplemented with 5% heat-inactivated fetal calf serum and antibiotics. PBMC (5×10E5 cells/mL) in 0.2 mL aliquot are pretreated with drugs in DMSO for 60 min at 37° C. in 96 well round-bottomed tissue culture plates. Thereafter, PBMC in the presence or absence of compound are stimulated with 1 mg/mL LPS from E. coli O55:B5 at a final concentration of 100 ng/mL. After overnight culture, the supernatants are harvested and assayed immediately for TNFα levels from each well. The concentration of TNFα in the supernatant is determined by human TNFα ELISA Kit according to the manufacture's directions.
# Active compounds are characterized by the concentration of the compound that caused 50% inhibition of TNFα level (IC50).
row,IC50,SMILES
1,11.8 µM,"Cc1c(Cc2ccccc2)c(=O)oc2cc(Cn3ccnc3N)ccc12 [Example 25, 2-oxo-3-benzyl-4-methyl-7-(2-aminoimidazol-1-yl-methyl)-1H-benzopyrane]"
2,50 µM,"Cc1c(Cc2cccnc2)c(=O)oc2cc(Oc3ncccn3)c(Cl)cc12 [Example 17, 2-oxo-2H-3-(3-pyridylmethyl)-4-methyl-6-chloro-7-(pyrimidin-2-yloxyl)-1-benzopyrane]"
3,< 0.6 µM,"CCOC(=O)CC(=O)Nc1cccc(Cc2c(C)c3ccc(Oc4ncccn4)cc3oc2=O)c1 [Example 19, 2-oxo-2H-3-(m-ethoxycarbonyl-acetylaminobenzyl)-4-methyl-7-(pyrimidin-2-yloxyl)-1-benzopyrane]"
4,6.8 µM,"Cc1c(Cc2ccccc2)c(=O)oc2cc(Oc3ncccn3)c(Cl)cc12 [Example 16, 2-oxo-2H-3-benzyl-4-methyl-6-chloro-7-(pyrimidin-2-yloxyl)-1-benzopyrane]"
5,10.4 µM,"Cc1c(Cc2ccccc2)c(=O)oc2cc(C(F)(F)C(=O)N(C)C)ccc12 [Example 24, 2-oxo-3-benzyl-4-methyl-7-(N,N-dimethylaminocarboxy-difluoromethyl)-1H-benzopyrane]"

row,SMILES,IC50
1,"CN(C)C(=O)Oc1ccc2c(-c3cccnc3)c(Cc3ccccc3)c(=O)oc2c1 [Example 8, dimethyl carbamic acid 2-oxo-2H-3-benzyl-4-(m-pyridyl)-1-benzopyran-7-yl ester]",18.7 µM
2,"Cc1c(Cc2ccccc2)c(=O)oc2cc(OC(=O)N(C)C)c(Cl)cc12 [Example 2, dimethyl carbamic acid 2-oxo-2H-3-benzyl-4-methyl-6-chloro-1-benzopyran-7-yl ester]",0.09 µM

# Same assay, conditions: human PBMC pretreated with drug 60 min, stimulated with LPS (E. coli O55:B5) 100 ng/mL, overnight culture, TNFα in supernatant by ELISA; read-out: 50% Inhibition of TNFα level (IC50)
row,SMILES,IC50
1,"Cc1c(Cc2ccccc2)c(=O)oc2cc(Cn3ccnc3N)ccc12 [Example 25, 2-oxo-3-benzyl-4-methyl-7-(2-aminoimidazol-1-yl-methyl)-1H-benzopyrane]",13.7 µM
2,CCc1c(Cc2cccc(N)c2)c(=O)oc2cc(Oc3ncccn3)cc(F)c12 [Example 20-59],5.9 µM
3,CCOC(=O)CC(=O)Nc1cccc(Cc2c(C)c3c(F)cc(Oc4ncccn4)cc3oc2=O)c1 [Example 20-40],< 0.6 µM
4,Cc1c(Cc2ccccc2)c(=O)oc2cc(OC(=O)N(C)C)c(I)cc12 [Example 14-12],0.06 µM
5,CCc1c(Cc2cccc(NC(C)=O)c2)c(=O)oc2cc(OC(=O)N(C)C)ccc12 [Example 14-79],1.6 µM
6,Cc1c(Cc2ccncc2)c(=O)oc2cc(Oc3ncccn3)ccc12 [Example 20-10],10.4 µM
7,CN(C)C(=O)Oc1ccc2c(-c3ccccc3)c(Cc3ccc(F)cc3)c(=O)oc2c1 [Example 14-84],1.67 µM
8,CC(=O)CC(=O)Nc1cccc(Cc2c(C)c3cc(Cl)c(Oc4ncccn4)cc3oc2=O)c1 [Example 20-42],2.2 µM
9,CCc1c(Cc2cccc(N)c2)c(=O)oc2cc(Oc3ncccn3)c(Cl)cc12 [Example 20-56],7.8 µM
10,CCCc1c(Cc2ccccc2)c(=O)oc2cc(OC(=O)N(C)C)c(Cl)cc12 [Example 14-83],0.78 µM
11,CCOC(=O)CCC(=O)Nc1cccc(Cc2c(C)c3ccc(Oc4ncccn4)cc3oc2=O)c1 [Example 20-21],2.8 µM
12,Cc1c(Cc2cccnc2)c(=O)oc2cc(OC(=O)N(C)C)c(Cl)cc12 [Example 14-35],0.45 µM
13,CC(=O)Nc1cccc(Cc2c(C)c3c(F)cc(OC(=O)N(C)C)cc3oc2=O)c1 [Example 14-7],1 µM
14,Cc1c(Cc2ccccc2)c(=O)oc2cc(OC(=O)N(C)C)c(C=O)cc12 [Example 14-16],9.6 µM
15,CCc1c(Cc2cccc(NC(C)=O)c2)c(=O)oc2cc(Oc3ncccn3)ccc12 [Example 20-54],6.7 µM
16,CCc1c(Cc2cccc([N+](=O)[O-])c2)c(=O)oc2cc(OC(=O)N(C)C)ccc12 [Example 14-77],0.9 µM
17,Cc1c(Cc2ccccc2N)c(=O)oc2cc(OC(=O)N(C)C)ccc12 [Example 14-64],2.1 µM
18,Cc1c(Cc2cccc([N+](=O)[O-])c2)c(=O)oc2cc(OC(=O)N(C)C)c(Cl)cc12 [Example 14-23],< 0.6 µM
19,CC(=O)Nc1cccc(Cc2c(C)c3ccc(OC(=O)N(C)C)cc3oc2=O)c1 [Example 14-60],1.1 µM
20,Cc1c(Cc2ccccc2)c(=O)oc2cc(Cn3ccnc3N)c(Cl)cc12 [Example 26-16],8.6 µM
21,Cc1c(Cc2cccnc2)c(=O)oc2c(C)c(OC(=O)N(C)C)ccc12 [Example 14-33],8.4 µM
22,CCc1cc2c(C)c(Cc3ccccc3)c(=O)oc2cc1OC(=O)N(C)C [Example 14-9],4.6 µM
23,CC(=O)Nc1cccc(Cc2c(C)c3cc(Cl)c(Oc4ncccn4)cc3oc2=O)c1 [Example 20-43],3.1 µM
24,Cc1c(Cc2cccc(NS(C)(=O)=O)c2)c(=O)oc2cc(Oc3ncccn3)c(Cl)cc12 [Example 20-41],< 0.6 µM

row,SMILES,IC50
1,Cc1c(Cc2cccc(N)c2)c(=O)oc2cc(Oc3ncccn3)ccc12 [Example 20-19],7.2 µM
2,Cc1c(Cc2ccc(S(C)(=O)=O)cc2)c(=O)oc2cc(OC(=O)N(C)C)ccc12 [Example 14-43],6.6 µM
3,CCc1c(Cc2cccc(N)c2)c(=O)oc2cc(Oc3nccs3)ccc12 [Example 22-7],4.2 µM
4,CC(=O)Nc1ccc(Cc2c(C)c3ccc(OC(=O)N(C)C)cc3oc2=O)cc1 [Example 14-61],5.8 µM
5,CC(=O)NCC(=O)Nc1cccc(Cc2c(C)c3cc(Cl)c(Oc4ncccn4)cc3oc2=O)c1 [Example 20-30],5.8 µM
6,CCc1c(Cc2cccc([N+](=O)[O-])c2)c(=O)oc2cc(Oc3nccs3)ccc12 [Example 22-11],3.2 µM
7,Cc1c(Cc2cccc(N)c2)c(=O)oc2cc(Oc3ncccn3)c(Cl)cc12 [Example 20-26],9.8 µM
8,Cc1c(Cc2ccncc2)c(=O)oc2cc(OC(=O)N(C)C)ccc12 [Example 14-32],1.3 µM
9,CCc1c(Cc2ccccc2)c(=O)oc2cc(OC(=O)N(C)C)c(Cl)cc12 [Example 14-74],0.24 µM
10,CC(=O)Nc1cccc(Cc2c(C)c3c(F)cc(Oc4ncccn4)cc3oc2=O)c1 [Example 20-39],5.4 µM
11,CCc1c(Cc2ccncc2)c(=O)oc2cc(OC(=O)N(C)C)ccc12 [Example 14-80],2.4 µM
12,Cc1c(Cc2ccccc2)c(=O)oc2cc(C(F)C#N)ccc12 (stereo not drawn) [Example 26-24],1.7 µM
13,Cc1c(Cc2cccc(N)c2)c(=O)oc2cc(OC(=O)N(C)C)cc(F)c12 [Example 14-6],1.6 µM
14,Cc1c(Cc2cccc([N+](=O)[O-])c2)c(=O)oc2cc(OC(=O)N(C)C)ccc12 [Example 14-56],4.5 µM
15,Cc1c(Cc2ccccc2N)c(=O)oc2cc(OC(=O)N(C)C)c(Cl)cc12 [Example 14-20],0.49 µM
16,COc1ccccc1Cc1c(C)c2ccc(OC(=O)N(C)C)cc2oc1=O [Example 14-44],7.5 µM
17,CCc1c(Cc2ccccc2)c(=O)oc2cc(Oc3nccs3)ccc12 [Example 22-10],2.5 µM
18,Cc1c(Cc2cccnc2)c(=O)oc2cc(OC(=O)N(C)C)ccc12 [Example 14-31],2.2 µM
19,CCc1c(Cc2cccc([N+](=O)[O-])c2)c(=O)oc2cc(Oc3ncccn3)cc(F)c12 [Example 20-58],11.9 µM
20,Cc1c(Cc2ccccc2)c(=O)oc2cc(OC(=O)N(C)C)c([N+](=O)[O-])cc12 [Example 14-17],0.12 µM
21,CCc1c(Cc2cccc(NC(C)=O)c2)c(=O)oc2cc(Oc3nccs3)ccc12 [Example 22-8],< 0.6 µM
22,Cc1c(Cc2cccc(N)c2)c(=O)oc2cc(OC(=O)N(C)C)c(Cl)cc12 [Example 14-24],0.46 µM
23,Cc1c(Cc2cccc(NC(=O)CCNC(=O)OCc3ccccc3)c2)c(=O)oc2cc(Oc3ncccn3)c(Cl)cc12 [Example 20-32],11.4 µM
